Several values for one entry are separate records, joined by “and”; a condition that tells them apart may be missing. Equal values may be shown once. Read-outs that look alike come from different tables or passages of the source. No end group written: not given here.
Tested on: polymorphonuclear leukocyte adhesion to TNF activated endothelial cells
Type: cell-based, human
Settings: for Average % Change of PMN Adhesion to TNF Activated ECs: average over PMN donors (# donors in parentheses)
How it was run: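 Human leukocytes were isolated on Ficoll-Hypaque and labelled for 15 min with 111In-oxide or 51Cr. They were added to TNF-activated HUVEC monolayers (≤5th passage, fibronectin-coated, washed with RPMI/1% FCS) for 30 min at 37 °C, 5% CO2. Adherent radioactivity was counted in quadruplicate, with basal binding to non-activated endothelium as control.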

Question: “IGWRNVTRLLVFATDDGFHFAGDGKLGAI [Peptide 4-29, NH2 --Ile--Gly--Trp--Arg--Asn--Val--Thr--Arg--Leu--Leu--Val--Phe--Ala--Thr--Asp--Asp--Gly--Phe--His--Phe--Ala--Gly--Asp--Gly--Lys--Leu--Gly--Ala--Ile--COOH]” was tested. Which “activity of the peptide after storage for different times at 4° C.” value did it give?
Answer: maintained

Question: What about the “concentration of peak inhibitory activity in the PMN adhesion assay” value of the same sequence?
Answer: 10^-5 to 10^-6 M and 10^-5 M

Question: And the “inhibitory activity in the PMN adhesion assay (in words)” value?
Answer: significant inhibitory activity

Question: What about the “Average % Change of PMN Adhesion to TNF Activated ECs” value (“Average % Change of PMN Adhesion” for short) (10^-4 M) of the same sequence?
Answer: -30%

Question: And the “Percent Change in PMN Adhesion to TNF Activated ECs” value (shortened to “Percent Change in PMN Adhesion”) (10^-4 M, donor 108, peptide frozen)?
Answer: -16%

Question: And the “Percent Change in PMN Adhesion” value (10^-4 M, donor 272, peptide fresh (second line of donor 272 fresh, last line of table))?
Answer: +53%

Question: What about the “Average % Change of PMN Adhesion” value (10^-5 M) of the same sequence?
Answer: -65%

Question: And the “Percent Change in PMN Adhesion” value (10^-5 M, donor 108, peptide frozen)?
Answer: -63%

Question: And the “Average % Change of PMN Adhesion” value (10^-6 M)?
Answer: -48%

Question: And the “Percent Change in PMN Adhesion” value (10^-6 M, donor 100, peptide frozen)?
Answer: -68%

Question: What about the “Percent Change in PMN Adhesion” value (10^-6 M, donor 272, peptide fresh (second line of donor 272 fresh, last line of table)) of the same sequence?
Answer: -41%

Question: What about the “Percent Change in PMN Adhesion” value (10^-6 M, donor 475, peptide fresh) of the same sequence?
Answer: -76%

Question: What about the “Average % Change of PMN Adhesion” value (10^-7 M) of the same sequence?
Answer: +3%

Question: And the “Percent Change in PMN Adhesion” value (10^-7 M, donor 121, peptide frozen)?
Answer: +3%

Question: And the “Percent Change in PMN Adhesion” value (10^-7 M, donor 155, peptide fresh)?
Answer: +1%

Question: What about the “Percent Change in PMN Adhesion” value (10^-7 M, donor 272, peptide fresh (second line of donor 272 fresh, last line of table)) of the same sequence?
Answer: +42%

Question: What about the “Percent Change in PMN Adhesion” value (10^-7 M, donor 323, peptide fresh, or 4° for 2 wks) of the same sequence?
Answer: +45%

Question: And the “Percent Change in PMN Adhesion” value (10^-7 M, donor 593, peptide fresh, or 4° for 2 wks)?
Answer: +14%

Question: What about the “Average % Change of PMN Adhesion” value (10^-8 M) of the same sequence?
Answer: -12%

Question: What about the “Percent Change in PMN Adhesion” value (10^-8 M, donor 178, peptide fresh) of the same sequence?
Answer: +2%

Question: And the “effect of freezing and thawing the peptide on its activity in the adhesion assay” value (PMNs from donors 100 and 272)?
Answer: does not significantly effect its activity

Source: patent publication US5340800A, “Peptide medicaments for the treatment of disease” (priority 1992, dated 1994)
